# Measurements taken from patent US20250177363A1, “SUBSTITUTED IMIDAZOPYRIDINYL COMPOUNDS USEFUL AS INHIBITORS OF TLR9” (Bristol-Myers Squibb Company, priority 2022, published 2025).
# Assays:
# Assay type in all cases: cell-based
# human TLR9 = biological target: T1, human TLR9 (Homo sapiens, UniProt Q9NR96); experiment: TLR9 inhibition reporter assay (HEK-Blue, SEAP); conditions: HEK-Blue cells overexpressing human TLR9, ligand ODN2006 200 nM, 22 hour incubation
# T1 construct: host or cells: HEK-Blue cells
# T1 sequence (Q9NR96 26-1032): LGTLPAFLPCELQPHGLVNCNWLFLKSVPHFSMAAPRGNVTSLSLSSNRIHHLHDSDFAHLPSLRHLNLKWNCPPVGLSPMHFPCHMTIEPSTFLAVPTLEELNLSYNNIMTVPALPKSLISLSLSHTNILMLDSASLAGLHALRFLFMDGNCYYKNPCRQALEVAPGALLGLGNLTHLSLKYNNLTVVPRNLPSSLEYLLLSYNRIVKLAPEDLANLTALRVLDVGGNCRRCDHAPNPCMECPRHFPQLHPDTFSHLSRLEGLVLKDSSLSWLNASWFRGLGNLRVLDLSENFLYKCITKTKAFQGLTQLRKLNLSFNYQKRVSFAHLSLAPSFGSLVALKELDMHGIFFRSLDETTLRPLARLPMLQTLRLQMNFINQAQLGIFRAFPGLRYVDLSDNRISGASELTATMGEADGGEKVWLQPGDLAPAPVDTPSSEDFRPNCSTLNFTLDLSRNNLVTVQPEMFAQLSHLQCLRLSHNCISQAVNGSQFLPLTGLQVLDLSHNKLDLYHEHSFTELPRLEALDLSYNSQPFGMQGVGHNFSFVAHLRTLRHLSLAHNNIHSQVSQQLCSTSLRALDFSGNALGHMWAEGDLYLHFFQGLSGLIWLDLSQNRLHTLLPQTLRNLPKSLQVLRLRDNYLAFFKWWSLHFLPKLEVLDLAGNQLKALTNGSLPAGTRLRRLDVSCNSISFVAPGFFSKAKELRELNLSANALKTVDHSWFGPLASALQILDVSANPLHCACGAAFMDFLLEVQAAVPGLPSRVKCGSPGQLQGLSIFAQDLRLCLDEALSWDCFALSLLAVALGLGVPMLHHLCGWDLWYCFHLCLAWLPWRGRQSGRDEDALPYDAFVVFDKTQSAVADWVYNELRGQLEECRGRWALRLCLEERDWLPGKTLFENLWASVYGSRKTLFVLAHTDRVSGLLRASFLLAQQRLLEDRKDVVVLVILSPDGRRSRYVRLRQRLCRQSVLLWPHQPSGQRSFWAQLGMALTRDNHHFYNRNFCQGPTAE
# Outline: (§1)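 HEK-Blue cells expressing human TLR7, TLR8 or TLR9 with NF-κB/AP-1-driven SEAP reporter; compounds 0.85 nM–50 μM, pre-treated 60 min. Stimulation: gardiquimod 2.5 μM (TLR7), R848 14.25 μM (TLR8), ODN2006 200 nM (TLR9); SEAP read after 22 h at 37 °C. Percent inhibition normalized between agonist+DMSO and known-inhibitor wells.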
# human TLR8 = biological target: T2, human TLR8 (Homo sapiens, UniProt Q9NR97); experiment: TLR8 inhibition reporter assay (HEK-Blue, SEAP); conditions: HEK-Blue cells overexpressing human TLR8, ligand R848 14.25 μM, 22 hour incubation
# T2 construct: host or cells: HEK-Blue cells
# T2 sequence (Q9NR97 27-1041): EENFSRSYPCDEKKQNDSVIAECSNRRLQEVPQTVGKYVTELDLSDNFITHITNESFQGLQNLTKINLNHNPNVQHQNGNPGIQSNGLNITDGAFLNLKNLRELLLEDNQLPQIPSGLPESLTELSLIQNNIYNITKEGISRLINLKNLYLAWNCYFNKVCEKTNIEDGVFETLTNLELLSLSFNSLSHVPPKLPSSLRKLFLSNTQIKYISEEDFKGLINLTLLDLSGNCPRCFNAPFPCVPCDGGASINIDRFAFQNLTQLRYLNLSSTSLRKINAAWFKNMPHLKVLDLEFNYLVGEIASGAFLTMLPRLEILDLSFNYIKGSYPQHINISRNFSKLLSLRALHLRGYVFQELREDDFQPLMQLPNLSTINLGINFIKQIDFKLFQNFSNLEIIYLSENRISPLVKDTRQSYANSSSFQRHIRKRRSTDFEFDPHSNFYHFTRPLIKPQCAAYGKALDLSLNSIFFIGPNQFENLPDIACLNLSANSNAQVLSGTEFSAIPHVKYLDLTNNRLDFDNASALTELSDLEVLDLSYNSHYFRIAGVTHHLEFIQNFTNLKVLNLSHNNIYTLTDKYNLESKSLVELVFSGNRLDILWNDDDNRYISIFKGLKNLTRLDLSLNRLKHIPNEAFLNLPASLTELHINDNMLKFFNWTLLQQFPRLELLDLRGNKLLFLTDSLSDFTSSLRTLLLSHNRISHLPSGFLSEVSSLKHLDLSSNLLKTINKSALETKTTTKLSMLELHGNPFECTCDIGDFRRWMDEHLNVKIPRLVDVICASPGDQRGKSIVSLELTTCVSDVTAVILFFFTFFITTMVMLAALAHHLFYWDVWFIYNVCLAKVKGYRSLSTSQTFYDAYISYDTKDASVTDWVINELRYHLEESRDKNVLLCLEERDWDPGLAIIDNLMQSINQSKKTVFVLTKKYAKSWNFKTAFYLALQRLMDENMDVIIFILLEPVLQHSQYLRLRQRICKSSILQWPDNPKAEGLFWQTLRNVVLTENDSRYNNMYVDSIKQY
# Outline: as §1
# human TLR7 = biological target: T3, human TLR7 (Homo sapiens, UniProt Q9NYK1); experiment: TLR7 inhibition reporter assay (HEK-Blue, SEAP); conditions: HEK-Blue cells overexpressing human TLR7, ligand gardiquimod 2.5 μM, 22 hour incubation
# T3 construct: host or cells: HEK-Blue cells
# T3 sequence (Q9NYK1 27-1049): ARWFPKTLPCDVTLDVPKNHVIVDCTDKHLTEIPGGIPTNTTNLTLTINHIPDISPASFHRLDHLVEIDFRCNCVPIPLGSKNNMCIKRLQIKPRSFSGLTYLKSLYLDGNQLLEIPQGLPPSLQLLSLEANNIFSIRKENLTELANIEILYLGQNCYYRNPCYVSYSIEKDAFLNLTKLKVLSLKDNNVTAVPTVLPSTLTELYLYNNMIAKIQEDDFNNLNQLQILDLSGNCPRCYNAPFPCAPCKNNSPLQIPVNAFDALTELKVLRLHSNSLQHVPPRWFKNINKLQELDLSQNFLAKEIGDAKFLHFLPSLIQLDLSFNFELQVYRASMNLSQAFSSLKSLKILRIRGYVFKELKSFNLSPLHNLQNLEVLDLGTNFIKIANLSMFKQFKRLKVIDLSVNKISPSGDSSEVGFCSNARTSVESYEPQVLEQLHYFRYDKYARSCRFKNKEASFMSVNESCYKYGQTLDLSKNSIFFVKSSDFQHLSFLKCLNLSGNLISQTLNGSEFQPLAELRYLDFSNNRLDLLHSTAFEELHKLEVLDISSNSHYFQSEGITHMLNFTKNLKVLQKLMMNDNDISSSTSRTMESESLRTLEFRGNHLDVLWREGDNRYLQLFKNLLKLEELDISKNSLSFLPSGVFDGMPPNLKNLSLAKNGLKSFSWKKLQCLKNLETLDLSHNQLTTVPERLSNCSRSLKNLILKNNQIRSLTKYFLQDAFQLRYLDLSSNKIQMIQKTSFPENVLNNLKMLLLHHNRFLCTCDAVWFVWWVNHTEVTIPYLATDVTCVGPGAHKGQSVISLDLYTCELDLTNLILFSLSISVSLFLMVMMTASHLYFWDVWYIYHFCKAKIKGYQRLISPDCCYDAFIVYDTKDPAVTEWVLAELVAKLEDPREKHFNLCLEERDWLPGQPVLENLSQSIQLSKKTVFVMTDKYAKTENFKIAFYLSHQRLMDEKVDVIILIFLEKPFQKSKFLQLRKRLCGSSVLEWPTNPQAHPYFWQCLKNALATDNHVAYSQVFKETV
# Outline: as §1
IC50 (human TLR9) [nM],IC50 (human TLR8) [nM],IC50 (human TLR7) [nM],Compound
37,> 50000,5700,"Cc1cc(C2CCN(C3CC4CCC(C3)N4C3CCOCC3)CC2)nc2c1nc(-c1ccc(S(C)(=O)=O)cc1)n2C (single isomer, unassigned) [Example 34, 3,7-dimethyl-2-(4-(methylsulfonyl)phenyl)-5-(1-(8-(tetrahydro-2H-pyran-4-yl)-8-azabicyclo[3.2.1]octan-3-yl)piperidin-4-yl)-3H-imidazo[4,5-b]pyridine]"
80,> 50000,740,"COc1ccc(-c2nc3c(C)cc(C4CCN([C@H]5C[C@@H]6CN(CC7CC7)C[C@@H]6C5)CC4)nc3n2C)cc1OC [Example 38, 5-(1-(2-(cyclopropylmethyl)octahydrocyclopenta[c]pyrol-5-yl)piperidin-4-yl)-2-(3,4-dimethoxyphenyl)-3,7-dimethyl-3H-imidazo[4,5-b]pyridine]"
84,> 50000,17000,"COc1cc(-c2nc3c(C)cc(C4CCN([C@H]5C[C@@H]6CN(C7CCC7)C[C@@H]6C5)CC4)nc3n2C)cn2ncnc12 [Example 42, 5-(1-((3aR,5s,6aS)-2-cyclobutyloctahydrocyclopenta[c]pyrrol-5-yl)piperidin-4-yl)-2-(8-methoxy-[1,2,4]triazolo[1,5-a]pyridin-6-yl)-3,7-dimethyl-3H-imidazo[4,5-b]pyridine]"
27,> 50000,360,"COCCN1C[C@H]2C[C@H](N3CCC(c4cc(C)c5nc(-c6cc(OC)c7ncnn7c6)n(C)c5n4)CC3)C[C@H]2C1 [Example 46, 2-(8-methoxy-[1,2,4]triazolo[1,5-a]pyridin-6-yl)-5-(1-((3aR,5s,6aS)-2-(2-methoxyethyl)octahydrocyclopenta[c]pyrrol-5-yl)piperidin-4-yl)-3,7-dimethyl-3H-imidazo[4,5-b]pyridine]"
79,> 50000,1400,"Cc1cc(C2CCN(C3CC4CCC(C3)N4CC(C)C)CC2)nc2c1nc(-c1ccc(S(C)(=O)=O)cc1)n2C (single isomer, unassigned) [Example 28, 5-(1-(8-isobutyl-8-azabicyclo[3.2.1]octan-3-yl)piperidin-4-yl)-3,7-dimethyl-2-(4-(methylsulfonyl)phenyl)-3H-imidazo[4,5-b]pyridine]"
180,> 50000,4500,"COc1cc(-c2nc3c(C)cc(C4CCN([C@H]5C[C@@H]6CN(C7CCOCC7)C[C@@H]6C5)CC4)nc3n2C)cn2ncnc12 [Example 44, 2-(8-methoxy-[1,2,4]triazolo[1,5-a]pyridin-6-yl)-3,7-dimethyl-5-(1-((3aR,5s,6aS)-2-(tetrahydro-2H-pyran-4-yl)octahydrocyclopenta[c]pyrrol-5-yl)piperidin-4-yl)-3H-imidazo[4,5-b]pyridine]"
